The results in this text go back to patent publication US20130123271A1, “HETEROCYCLIC COMPOUNDS, THEIR PREPARATION AND THERAPEUTIC APPLICATION” (FOVEA PHARMACEUTICALS, priority 2010, published 2013).

h Src, sequence (P12931 whole entry): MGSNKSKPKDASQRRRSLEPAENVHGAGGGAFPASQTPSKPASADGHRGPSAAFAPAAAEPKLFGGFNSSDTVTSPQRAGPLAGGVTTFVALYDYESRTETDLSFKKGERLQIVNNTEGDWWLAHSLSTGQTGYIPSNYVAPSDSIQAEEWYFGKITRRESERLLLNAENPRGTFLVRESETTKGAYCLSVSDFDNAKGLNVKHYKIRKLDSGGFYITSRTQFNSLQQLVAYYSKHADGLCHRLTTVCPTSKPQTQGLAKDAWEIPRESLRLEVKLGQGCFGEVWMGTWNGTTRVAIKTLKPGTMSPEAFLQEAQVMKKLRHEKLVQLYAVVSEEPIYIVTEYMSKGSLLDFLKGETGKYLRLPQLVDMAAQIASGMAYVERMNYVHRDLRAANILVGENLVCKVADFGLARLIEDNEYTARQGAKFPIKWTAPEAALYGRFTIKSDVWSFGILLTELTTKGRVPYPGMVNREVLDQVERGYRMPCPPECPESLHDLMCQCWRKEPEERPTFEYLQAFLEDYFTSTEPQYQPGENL

This experiment concerns the target h Src (Homo sapiens, UniProt P12931). The experiment is described as follows: LC3000 Src assay (off-chip incubation mobility-shift kinase assay, Caliper LabChip). It is filed as biochemical. To be noted: ATP at KM apparent. Here is the method: The screening and profiling experiments described here were performed using Caliper Life Sciences' proprietary LabChip™ technology. Caliper LC3000 and EZ Reader II instruments are widely used throughout the drug discovery process for assay development, primary screening, selectivity screening, generation of Structure-Activity Relationships (SARs) and Mechanism of Action (MOA) studies. The LabChip™ technology is particularly well suited for enzymatic ‘targets’ such as kinases, proteases, phosphatases, histone deacetylases (HDAC), phosphodiesterases (PDE), and acyl-transferases. The key benefit of the technology is the separation and direct measurement of substrates and products, which allows for higher signal-to-noise ratios and fewer false positive/negative results. This direct measurement also allows for the identification and elimination of enzymatic activities that are not associated with the kinase reaction of interest.
The off-chip incubation mobility-shift kinase assay uses a microfluidic chip to measure the conversion of a fluorescent peptide substrate to a phosphorylated product. The reaction mixture, from a microtiter plate well, is introduced through a capillary sipper onto the chip, where the nonphosphorylated substrate and phosphorylated product are separated by electrophoresis and detected via laser-induced fluorescence. […] The phosphorylated product migrates through the chip faster than the non-phosphorylated substrate, and signals from the two forms of the peptide appear as distinct peaks. Caliper's data analysis software (HTSWA) determines peak heights, from which the ratio of product to the peak sum P/(P+S) and percent (%) conversion is calculated. This value is used to compare compound wells to control wells present on the plate, and thereby determine the % inhibition values for the compound. The formula used to calculate % inhibition is as follows, where C100% is the average % conversion of the 100% activity wells and C0% is the average % conversion of the 0% activity wells:
(1-(%conversionofsample—C0%)/(C100%−C0%))*100
Compounds were dissolved in 100% DMSO and diluted to 25× the final desired screening concentration. Serial dilutions were performed to obtain the concentrations specified for particular studies. One μl of each concentration was transferred, in duplicate, to a 384-well Greiner microtiter plate. Generally, 12 μL of enzyme buffer containing purified kinase (various suppliers), 100 mM HEPES, pH 7.5, 1 mM DTT (Calbiochem, 2333153), 10 mM MgCl2 (Sigma, M-1028) or 10 mM MnCl2 (Sigma, M-1787) (assay specific), and 0.002% Brij-35 (Sigma, B4184) was added to each well. Compound and enzyme were allowed to pre-incubate for 15 minutes. 12 μL of peptide/ATP buffer containing 100 mM HEPES, pH 7.5, 1.5 μM fluorescein-labeled peptide (specific to kinase of interest), ATP (at KM apparent, Sigma, A9187), and 0.002% Brij-35 was then added to each well to initiate the reaction. Generally, reactions were incubated for 1-1.5 hours at room temperature to obtain adequate (15-40%) conversion of peptide to phosphorylated product in the linear range of the reaction. Reactions were terminated with the addition of 45 μL of Stop Buffer (containing 20 mM EDTA). Plates were then read on the LabChip 3000 using a 12-sipper LabChip. % conversion values and % inhibition values were obtained as described and IC50 curves of compounds were generated using Graphpad Prism Version 4 or 5.01. A nonlinear curve fit using the sigmoidal dose response—variable slope fit was used to graph IC50 curves and determine IC50 values and hillslopes.
Consider `Oc1ccc(Cl)c(-c2ccc3nc(Nc4cccnc4)ncc3c2)c1` [Compound 17, 4-Chloro-3-[2-(pyridin-3-ylamino)-quinazolin-6-yl]-phenol], for which the IC50 came out at 2 nM. For `Oc1ccc(Cl)c(-c2ccc3nc(Nc4ccc5cc[nH]c5c4)nn3c2)c1` [Compound 18, 4-Chloro-3-[2-(1H-indol-6-ylamino)-[1,2,4]triazolo[1,5-a]pyridin-6-yl]-phenol], the IC50 came out at 39 nM.

Turning to `Oc1ccc(Cl)c(-c2ccc3nc(Nc4ccnc(O)c4)nn3c2)c1` [Compound 19, 4-[6-(2-Chloro-5-hydroxy-phenyl)-[1,2,4]triazolo[1,5-a]pyridin-2-ylamino]-pyridin-2-ol], the IC50 is 28 nM.

As to `COc1cc(Nc2nc3ccc(-c4cc(O)ccc4Cl)cn3n2)ccn1` [Compound 20, 4-Chloro-3-[2-(2-methoxy-pyridin-4-ylamino)-[1,2,4]triazolo[1,5-a]pyridin-6-yl]-phenol], the IC50 was 6 nM. The result for `OCc1cncc(Nc2ncc3cc(-c4cc(O)ccc4Cl)ccc3n2)c1` [Compound 21, 4-Chloro-3-[2-(5-hydroxymethyl-pyridin-3-ylamino)-quinazolin-6-yl]-phenol] reads 0.4 nM; that for `Oc1ccc(Cl)c(-c2ccc3nc(Nc4cncc(OCCN5CCCC5)c4)nn3c2)c1` [Compound 26, 4-Chloro-3-{2-[5-(2-pyrrolidin-1-yl-ethoxy)-pyridin-3-ylamino]-[1,2,4]triazolo[1,5-a]pyridin-6-yl}-phenol], 14 nM; that for `COc1cc(Nc2nc3ccc(-c4cc(O)ccc4Cl)cn3n2)cc(OC)c1OC` [Compound 29, 4-Chloro-3-[2-(3,4,5-trimethoxy-phenylamino)-[1,2,4]triazolo[1,5-a]pyridin-6-yl]-phenol], 2 nM.

With `OCCn1cnc2ccc(Nc3nc4ccc(-c5cc(O)ccc5Cl)cn4n3)cc21` [Compound 30, 4-Chloro-3-{2-[3-(2-hydroxy-ethyl)-3H-benzoimidazol-5-ylamino]-[1,2,4]triazolo[1,5-a]pyridin-6-yl}-phenol], the IC50 is 7 nM. With `Oc1ccc(Cl)c(-c2ccn3nc(Nc4cccnc4)nc3c2)c1` [Compound 31, 4-Chloro-3-[2-(pyridin-3-ylamino)-[1,2,4]triazolo[1,5-a]pyridin-7-yl]-phenol], the IC50 amounted to 69 nM. The result for `Oc1ccc(Cl)c(-c2ccc3nc(Nc4ccnc(OCCN5CCCC5)c4)nn3c2)c1` [Compound 33, 4-Chloro-3-{2-[2-(2-pyrrolidin-1-yl-ethoxy)-pyridin-4-ylamino]-[1,2,4]triazolo[1,5-a]pyridin-6-yl}-phenol] reads 29 nM; that for `OCc1cc(CO)cc(Nc2nc3cc(-c4cc(O)ccc4Cl)ccn3n2)c1` [Compound 34, 3-[2-(3,5-Bis-hydroxymethyl-phenylamino)-[1,2,4]triazolo[1,5-a]pyridin-7-yl]-4-chloro-phenol], 9 nM.

On to `OCc1ccc(Nc2nc3ccc(-c4cc(O)ccc4Cl)cn3n2)cc1CO` [Compound 35, 3-[2-(3,4-Bis-hydroxymethyl-phenylamino)-[1,2,4]triazolo[1,5-a]pyridin-6-yI]-4-chloro-phenol], for which the IC50 stood at 34 nM. As to `COc1cc(Nc2ncc3cc(-c4cc(O)ccc4Cl)ccc3n2)cc(OC)c1OC` [Compound 36, 4-Chloro-3-[2-(3,4,5-trimethoxy-phenylamino)-quinazolin-6-y]-phenol], the IC50 was found to be 0.5 nM. As for `OCCN1CCN(c2cc(Nc3nc4ccc(-c5cc(O)ccc5Cl)cn4n3)ccn2)CC1` [Compound 38, 4-Chloro-3-(2-{2-[4-(2-hydroxy-ethyl)-piperazin-1-yl]-pyridin-4-ylamino}-[1,2,4]triazolo[1,5-a]pyridin-6-yl)-phenol], the IC50 was found to be 13 nM. Under `COc1cc2nc(Nc3ccc(OCCN4CCCC4)cc3)nn2cc1-c1cc(O)ccc1Cl` [Compound 39, 4-Chloro-3-{7-methoxy-2-[4-(2-pyrrolidin-1-yl-ethoxy)-phenylamino]-[1,2,4]triazolo[1,5-a]pyridin-6-yl}-phenol] stands 69 nM; under `COc1ccc(Nc2ncc3cc(-c4cc(O)ccc4Cl)ccc3n2)cn1` [Compound 40, 4-Chloro-3-[2-(6-methoxy-pyridin-3-ylamino)-quinazolin-6-yl]-phenol], 10 nM; under `[O-][N+]1(CCOc2ccc(Nc3nc4ccc(-c5cc(O)ccc5Cl)cn4n3)cc2)CCCC1` [Compound 41, 4-Chloro-3-(2-{4-[2-(1-oxy-pyrrolidin-1-yl)-ethoxy]-phenylamino}-[1,2,4]triazolo[1,5-a]pyridin-6-yl)-phenol], 55 nM. Under `Oc1ccc(Cl)c(-c2ccc3nc(Nc4ccc5cc[nH]c5c4)ncc3c2)c1` [Compound 42, 4-Chloro-3-[2-(1 H-indol-6-ylamino)-quinazolin-6-yl]-phenol] stands 100 nM. Under `O=C1CCCN1CCOc1ccc(Nc2nc3ccc(-c4cc(O)ccc4Cl)cn3n2)cn1` [Compound 44, 1-(2-{5-[6-(2-Chloro-5-hydroxy-phenyl)-[1,2,4]triazolo[1,5-a]pyridin-2-ylamino]-pyridin-2-yloxy}-ethyl)-pyrrolidin-2-one] stands 57 nM.

As for `OCCN1CCN(c2cc(CO)cc(Nc3nc4ccc(-c5cc(O)ccc5Cl)cn4n3)c2)CC1` [Compound 47, 4-Chloro-3-(2-{3-[4-(2-hydroxy-ethyl)-piperazin-1-yl]-5-hydroxymethyl-phenylamino}-[1,2,4]triazolo[1,5-a]pyridin-6-yl)-phenol], the IC50 is 1 nM.

Take `Cc1cc(Nc2ncc3cc(-c4cc(OC(=O)c5ccccc5)ccc4Cl)ccc3n2)cc(N2CCN(CCO)CC2)c1` [Compound 49, Benzoic acid 4-chloro-3-(2-{3-[4-(2-hydroxy-ethyl)-piperazin-1-yl]-5-methyl-phenylamino}-quinazolin-6-yl)-phenyl ester]: the IC50 came out at 11 nM. The result for `OCCN1CCN(c2cc(CO)cc(Nc3ncc4cc(-c5cc(O)ccc5Cl)ccc4n3)c2)CC1` [Compound 50, 4-Chloro-3-(2-{3-[4-(2-hydroxy-ethyl)-piperazin-1-yl]-5-hydroxymethyl-phenylamino}-quinazolin-6-yl)-phenol] reads 0.2 nM. The result for `Oc1ccc(Cl)c(-c2ccc3nc(Nc4ccncc4)nn3c2)c1` [compound 1, 4-Chloro-3-[2-(pyridin-4-ylamino)-[1,2,4]triazolo[1,5-a]pyridin-6-yl]-phenol] reads 73 nM; that for `Oc1ccc(Cl)c(-c2ccc3nc(Nc4cccnc4)nn3c2)c1` [compound 2, 4-Chloro-3-[2-(pyridin-3-ylamino)-[1,2,4]triazolo[1,5-a]pyridin-6-yl]-phenol], 120 nM; that for `Oc1ccc(Cl)c(-c2ccc3nc(Nc4cncnc4)nn3c2)c1` [compound 3, 4-Chloro-3-[2-(pyrimidin-5-ylamino)-[1,2,4]triazolo[1,5-a]pyridin-6-yl]-phenol], 150 nM. The result for `OCc1cncc(Nc2nc3ccc(-c4cc(O)ccc4Cl)cn3n2)c1` [compound 4, 4-Chloro-3-[2-(5-hydroxymethyl-pyridin-3-ylamino)-[1,2,4]triazolo[1,5-a]pyridin-6-yl]-phenol] reads 39 nM; that for `COc1ccc(Nc2nc3ccc(-c4cc(O)ccc4Cl)cn3n2)cn1` [compound 7, 4-Chloro-3-[2-(6-methoxy-pyridin-3-ylamino)-[1,2,4]triazolo[1,5-a]pyridin-6-yl]-phenol], 80 nM; that for `Oc1ccc(Cl)c(-c2ccc3nc(Nc4ccc(OCCN5CCCC5)cn4)nn3c2)c1` [compound 8, 4-Chloro-3-{2-[5-(2-pyrrolidin-1-yl-ethoxy)-pyridin-2-ylamino]-[1,2,4]triazolo[1,5-a]pyridin-6-yl}-phenol], 100 nM. For `Oc1ccc(Cl)c(-c2ccc3nc(Nc4ccccn4)nn3c2)c1` [compound 12, 4-Chloro-3-[2-(pyridin-2-ylamino)-[1,2,4]triazolo[1,5-a]pyridin-6-yl]-phenol], the IC50 was found to be 170 nM. The result for `OCc1ccc(Nc2nc3ccc(-c4cc(O)ccc4Cl)cn3n2)cn1` [compound 14, 4-Chloro-3-[2-(6-hydroxymethyl-pyridin-3-ylamino)-[1,2,4]triazolo[1,5-a]pyridin-6-yl]-phenol] reads 47 nM.
